In patent publication US20230085307A1, “PYRIDAZINONE COMPOUND AND HERBICIDE” (NISSAN CHEMICAL CORPORATION, priority 2019, published 2023):

Experiments:
late watergrass [1] = assay: Test Example 1: herbicidal activity, application before weed generation under submerged conditions (Table 16, symbol A); type: in vivo, late watergrass (Echinochloa oryzicola); conditions: 80 g/ha applied herbicide
How it was run: (§1)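 Emulsion formulation, water-diluted to set dose, was put onto the flooded surface (4 cm depth, alluvial soil) the same day weeds were sown and 2.5-leaf rice transplanted. After 3 weeks at 25-30 °C under glass, each species was rated 0 (≤5% kill) to 5 (≥90% kill).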

Japanese bulrush [2] = assay: Test Example 1: herbicidal activity, application before weed generation under submerged conditions (Table 16, symbol B); type: in vivo, Japanese bulrush (Schoenoplectus juncoides); conditions: 80 g/ha applied herbicide
How it was run: as §1

oval-leafed pondweed [3] = assay: Test Example 1: herbicidal activity, application before weed generation under submerged conditions (Table 16, symbol C); type: in vivo, oval-leafed pondweed (Monochoria vaginalis); conditions: 80 g/ha applied herbicide
How it was run: as §1

Japanese bulrush [4] = assay: Test Example 2: herbicidal activity, application during weed generation under submerged conditions (Table 17, symbol B); type: in vivo, Japanese bulrush (Schoenoplectus juncoides); conditions: AAH 80 g/ha; application during weed generation, submerged conditions
How it was run: (§2)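 Alluvial soil in Wagner pots was flooded to 4 cm depth and sown with the three weeds together; pots were kept in a greenhouse at 25° C. to 30° C. At the one to two leaf stage, an emulsion formulation diluted in water to a set rate went onto the water surface; scored three weeks later.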

oval-leafed pondweed [5] = assay: Test Example 2: herbicidal activity, application during weed generation under submerged conditions (Table 17, symbol C); type: in vivo, oval-leafed pondweed (Monochoria vaginalis); conditions: AAH 80 g/ha; application during weed generation, submerged conditions
How it was run: as §2

late watergrass [6] = assay: Test Example 2: herbicidal activity, application during weed generation under submerged conditions (Table 17, symbol A); type: in vivo, late watergrass (Echinochloa oryzicola); conditions: AAH 80 g/ha; application during weed generation, submerged conditions
How it was run: as §2

Cc1nn(C)c(=O)c(-c2c(-c3ccccc3)sc3ccc(-c4ccccc4)cc23)c1O [2-166]
Herbicidal effect on A: late watergrass (grade 0-5) (late watergrass [1]): 2 (Herbicidal rate of 20% or more and less than 40%)
Herbicidal effect on B: Japanese bulrush (grade 0-5) (Japanese bulrush [2]): 0 (Herbicidal rate of 5% or less (almost no effect))
Herbicidal effect on C: oval-leafed pondweed (grade 0-5) (oval-leafed pondweed [3]): 0 (Herbicidal rate of 5% or less (almost no effect))
herbicidal effect rating, B: Japanese bulrush (Japanese bulrush [4]): 3 (Herbicidal rate of 40% or more and less than 70%)
herbicidal effect rating, C: oval-leafed pondweed (oval-leafed pondweed [5]): 0 (Herbicidal rate of 5% or less (almost no effect))
herbicidal effect rating, A: late watergrass (late watergrass [6]): 0 (Herbicidal rate of 5% or less (almost no effect))
